From PubChem BioAssay (NCI)
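All cell lines were grown in 96-well plates and treated with compound for 48 hours. Abbreviation: GI50, concentration required for 50% inhibition of growth. TGI is the concentration that stops growth completely.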

Columns and labels:
Assay in all cases: NCI-60 cell line screen, 48 h
NCI-H460 lung = test system: NCI-H460 lung
NCI-H522 lung = test system: NCI-H522 lung
NCI/ADR-RES ovarian = test system: NCI/ADR-RES ovarian
OVCAR-3 ovarian = test system: OVCAR-3 ovarian
OVCAR-4 ovarian = test system: OVCAR-4 ovarian
OVCAR-5 ovarian = test system: OVCAR-5 ovarian
OVCAR-8 ovarian = test system: OVCAR-8 ovarian
PC-3 prostate = test system: PC-3 prostate
RPMI-8226 leukemia = test system: RPMI-8226 leukemia
RXF 393 renal = test system: RXF 393 renal
SF-268 CNS = test system: SF-268 CNS
SF-295 CNS = test system: SF-295 CNS
SF-539 CNS = test system: SF-539 CNS
SK-MEL-2 melanoma = test system: SK-MEL-2 melanoma
SK-MEL-28 melanoma = test system: SK-MEL-28 melanoma
SK-MEL-5 melanoma = test system: SK-MEL-5 melanoma
SK-OV-3 ovarian = test system: SK-OV-3 ovarian
SN12C renal = test system: SN12C renal
SNB-19 CNS = test system: SNB-19 CNS
SNB-75 CNS = test system: SNB-75 CNS
SR leukemia = test system: SR leukemia
SW-620 colon = test system: SW-620 colon
T-47D breast = test system: T-47D breast
TK-10 renal = test system: TK-10 renal
U251 CNS = test system: U251 CNS
UACC-257 melanoma = test system: UACC-257 melanoma
UACC-62 melanoma = test system: UACC-62 melanoma
UO-31 renal = test system: UO-31 renal

O=C1Nc2ccc(Cl)cc2/C1=C\c1c(-c2ccc(F)cc2)nc2ccccn12
GI50 (NCI-H460 lung): 2.35 µM
TGI (NCI-H460 lung): 5.89 µM
GI50 (NCI-H522 lung): 2.17 µM
TGI (NCI-H522 lung): 5.42 µM
GI50 (NCI/ADR-RES ovarian): 2.3 µM
TGI (NCI/ADR-RES ovarian): 7.06 µM
GI50 (OVCAR-3 ovarian): 1.89 µM
TGI (OVCAR-3 ovarian): 3.8 µM
GI50 (OVCAR-4 ovarian): 2.3 µM
TGI (OVCAR-4 ovarian): 7.23 µM
GI50 (OVCAR-5 ovarian): 2.21 µM
TGI (OVCAR-5 ovarian): 6.72 µM
GI50 (OVCAR-8 ovarian): 2.28 µM
TGI (OVCAR-8 ovarian): 5.99 µM
GI50 (PC-3 prostate): 2.43 µM
TGI (PC-3 prostate): 8.36 µM
GI50 (RPMI-8226 leukemia): 2.25 µM
TGI (RPMI-8226 leukemia): 7.86 µM
GI50 (RXF 393 renal): 1.87 µM
TGI (RXF 393 renal): 4.2 µM
GI50 (SF-268 CNS): 2.34 µM
TGI (SF-268 CNS): 6.04 µM
GI50 (SF-295 CNS): 1.87 µM
TGI (SF-295 CNS): 4.23 µM
GI50 (SF-539 CNS): 2.09 µM
TGI (SF-539 CNS): 5 µM
GI50 (SK-MEL-2 melanoma): 2.66 µM
TGI (SK-MEL-2 melanoma): 6.17 µM
GI50 (SK-MEL-28 melanoma): 3.33 µM
TGI (SK-MEL-28 melanoma): 15.3 µM
GI50 (SK-MEL-5 melanoma): 2.38 µM
TGI (SK-MEL-5 melanoma): 7.45 µM
GI50 (SK-OV-3 ovarian): 2.18 µM
TGI (SK-OV-3 ovarian): 5.06 µM
GI50 (SN12C renal): 2.88 µM
TGI (SN12C renal): 10.8 µM
GI50 (SNB-19 CNS): 3.33 µM
TGI (SNB-19 CNS): 27.4 µM
GI50 (SNB-75 CNS): 2.08 µM
TGI (SNB-75 CNS): 7.97 µM
GI50 (SR leukemia): 2.92 µM
TGI (SR leukemia): > 100 µM
GI50 (SW-620 colon): 3 µM
TGI (SW-620 colon): 11.7 µM
GI50 (T-47D breast): 4.35 µM
TGI (T-47D breast): 19.6 µM
GI50 (TK-10 renal): 2.95 µM
TGI (TK-10 renal): 7.39 µM
GI50 (U251 CNS): 2.05 µM
TGI (U251 CNS): 5.13 µM
GI50 (UACC-257 melanoma): 3.11 µM
TGI (UACC-257 melanoma): 16.3 µM
GI50 (UACC-62 melanoma): 2.58 µM
TGI (UACC-62 melanoma): 11.5 µM
GI50 (UO-31 renal): 2.1 µM
TGI (UO-31 renal): 5.61 µM
